Publication PMC11067372, “Evaluation of the antiplasmodial efficacy of synthetic 2,5-diphenyloxazole analogs of compounds naturally derived from Oxytropis lanata” (International Journal for Parasitology: Drugs and Drug …, 2024)

Key:
P. falciparum K1 = experiment: In vitro inhibition of P. falciparum K1 (SYBR Green I-based fluorescence assay); type: cell-based; settings: Plasmodium falciparum; multidrug-resistant strain K1; 72 h incubation; average ± SD, three independent experiments; read-out: IC50 P. falciparum K1
Protocol: The cultures were maintained in an incubator under specific conditions: 37 °C under 5% CO2 and 5% O2.
The D-sorbitol method (CAS: 50-70-4, Wako, Osaka, Japan) was employed to synchronize parasites, resulting in the attainment of ≥90% ring-stage parasites. These synchronized parasites were then utilized for the experiments within a 2-h window. The assay was performed as follows. First, 50 μL of synchronized parasites with 0.5% parasitemia and 2% hematocrit were added to individual wells of a 96-well plate. Then, 50 μL of the test compounds was introduced to each well. […] Wells containing only test compounds and erythrocytes were included for background correction. […] After the designated incubation time, 100 μL of lysis buffer containing 0.02% (v/v) SYBR Green I was added to each well, the contents of the well were mixed by pipetting, and the plate was incubated in the dark at room temperature for 2 h. […] This assay was repeated four times at each concentration, and the resulting inhibitory values represent the average from three independent trials.
The IC50 or CC50 values were determined from three independent experiments by plotting the logarithmic concentration of the compound against the percent parasite inhibition or cell growth inhibition, respectively. Nonlinear regression analysis was conducted using GraphPad Prism 10 (GraphPad Software, Inc., La Jolla, CA, USA). Comparisons between groups were evaluated using either one-way or two-way ANOVA followed by Tukey's or Fisher's multiple comparisons tests. […] The meaning of each symbol is specified in the corresponding figure legend alongside the name of the employed test.

P. falciparum 3D7 [1] = experiment: 72-h compound exposure assay with wash-unwashed procedure (up to 144 h); type: cell-based, Plasmodium falciparum; settings: for Parasitemia levels at 48 and 72 h compared to untreated controls: compound at IC80; for Cidal versus static effect: compound at IC80, up to 144 h, washed and unwashed groups
Protocol: In the 72-h compound exposure assay with the compound wash-unwashed procedure, parasites at the ring stage with 0.5% parasitemia and 2% hematocrit were employed. For this evaluation, Compounds 31 and 32 were used at concentrations equivalent to their respective IC80 values (Compound 31: 18.08 μM; hill slope 2.10, Compound 32: 11.74 μM; hill slope 2.02). These groups were considered the treated groups, while cultures with only complete medium served as untreated groups. The IC80 was used to allow observations of parasite morphology under incomplete inhibition, the potential emergence of abnormal morphologies, and the state of parasites following compound removal. This experimental setup was repeated three times for each concentration and time point. Thin blood smears were prepared from each treatment group at 1, 24, 48, or 72 h post incubation. In different culture sets, after 72 h of incubation, the medium was exchanged, and the compounds were subjected to three washes using fresh complete medium. Incubation was then continued either in the presence (unwashed group) or absence (washed group) of the test compounds for up to 144 h. Thin blood smears were consecutively prepared from each treatment group at 96, 120, and 144 h. The smears were visualized using a BZ-900 all-in-one microscope (Keyence BioRevo, Tokyo, Japan). Parasitemia levels were calculated by counting the number and determining the ratio of infected erythrocytes relative to the number of uninfected erythrocytes.

Hemolysis rate = type: cell-based; settings: erythrocytes (red blood cells)
P. falciparum 3D7 [2] = experiment: Stage-specific microscopy examination (ring, trophozoite, schizont); type: cell-based, Plasmodium falciparum; settings: for Inhibition of the life cycle at 10- and 1-fold IC50: 24 h; for Parasite morphology after 24 h treatment: ring, trophozoite, schizont stages, artemisinin and chloroquine at all concentrations, Compounds 31 and 32 at 100 times IC50
Protocol: To ensure uniformity, the parasites underwent a rigorous synchronization process using a two-step sorbitol treatment procedure. This synchronized parasite population was harnessed within a 2-h window for the ring stage, 8–10 h for the trophozoite stage, and 24–26 h for the schizont stage. Subsequent to sorbitol treatment, early trophozoites could be obtained within 6–8 h after the initial sorbitol treatment (within 20 h of development), while early schizonts could be obtained after an additional 16 h of incubation (within 36 h of development). Beyond 36 h, the schizonts mature, causing the rupture of red blood cells (RBCs) and the consequent release of merozoites, which promptly infect new RBCs.
The negative control group consisted of cultures treated solely with complete medium and was designated the no treatment (NT) group. This analysis was repeated three times at each concentration. Following a 24-h incubation period, the culture in a 96-well plate was centrifuged at 1300 g for 5 min to settle down the iRBC; then, the supernatants were removed, and the iRBCs were washed with fresh media at the same volume as the initial culture. The centrifugation and washing were repeated 3 times, allowing the compound to be diluted by approximately 1000 times. Subsequently, thin blood smears from each treatment group were prepared using 1 μL of settled iRBCs. The proportion of parasites affected by the drug, including those with both abnormal and retained morphologies, was calculated by examining 100 parasites and counting the number displaying irregular development. Subsequently, the number of abnormal parasites was divided by the total count and then multiplied by 100 to obtain a percentage. The parameters used to define normal and abnormal morphologies can be found in Table S3 and Fig. S1.

Row | Compound | IC50 (P. falciparum K1) | Parasitemia levels at 48 and 72 h compared to untreated controls (P. falciparum 3D7 [1]) | Cidal versus static effect (P. falciparum 3D7 [1]) | hemolysis at 1000 µM (Hemolysis rate) | Inhibition of the life cycle at 10- and 1-fold IC50 (P. falciparum 3D7 [2]) | Parasite morphology after 24 h treatment (P. falciparum 3D7 [2])
1 | COc1cccc(-c2ncc(-c3ccccc3O)o2)c1OC [Compound 31, 2-(2′,3′-dimethoxyphenyl)-5-(2″-hydroxyphenyl)oxazole] | 2.66 ± 1.15 µM | significantly lower parasitemia levels | possible cidal effect | < 3% | only partial inhibition of the life cycle | abnormal phenotype of ring-stage parasites
2 | COc1cccc(-c2ncc(-c3ccccc3OCc3ccccc3)o2)c1OC [Compound 32, 2-(2′,3′-dimethoxyphenyl)-5-(2″-benzyloxyphenyl)oxazole] | 4.37 ± 1.7 µM | significantly lower parasitemia levels | predominantly static effect | < 3% | only partial inhibition of the life cycle | abnormal phenotype of ring-stage parasites
